# Measured values taken from ChEMBL document CHEMBL1201862, “PubChem BioAssay data set” (2004).
# Calls of active or inactive are those of the source.
# Tests used:
# [1] = target: Glyceraldehyde-3-phosphate dehydrogenase (Homo sapiens, UniProt P04406)
# [2] = target: T1, Alkaline phosphatase, tissue-nonspecific isozyme (Homo sapiens, UniProt P05186); assay: potency against alkaline phosphatase TNAP – biochemical, luminescent, dose response, SAR follow-up (AID 1056)
# T1 sequence (P05186 whole entry): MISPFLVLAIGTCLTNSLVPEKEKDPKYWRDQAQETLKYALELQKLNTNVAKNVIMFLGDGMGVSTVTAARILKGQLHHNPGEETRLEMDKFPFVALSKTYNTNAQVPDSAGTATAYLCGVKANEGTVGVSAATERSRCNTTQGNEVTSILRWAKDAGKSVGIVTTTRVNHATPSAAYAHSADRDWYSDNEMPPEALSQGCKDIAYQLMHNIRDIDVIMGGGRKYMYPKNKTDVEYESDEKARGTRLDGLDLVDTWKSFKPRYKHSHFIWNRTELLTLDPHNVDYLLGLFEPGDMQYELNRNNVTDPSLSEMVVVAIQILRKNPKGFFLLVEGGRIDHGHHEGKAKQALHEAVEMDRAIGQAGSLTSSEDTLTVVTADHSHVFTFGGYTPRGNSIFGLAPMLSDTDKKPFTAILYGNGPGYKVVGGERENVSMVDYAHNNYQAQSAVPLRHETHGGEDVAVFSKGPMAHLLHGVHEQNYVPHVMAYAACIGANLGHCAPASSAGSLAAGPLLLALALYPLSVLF
# [3] = target: T2, G-protein coupled receptor 55 (Homo sapiens, UniProt Q9Y2T6); assay: selective activators of receptor GPR55 – imaging, U2OS cells, beta-arrestin-GFP redistribution, primary screen (AID 1961); type: functional
# T2 sequence (Q9Y2T6 whole entry): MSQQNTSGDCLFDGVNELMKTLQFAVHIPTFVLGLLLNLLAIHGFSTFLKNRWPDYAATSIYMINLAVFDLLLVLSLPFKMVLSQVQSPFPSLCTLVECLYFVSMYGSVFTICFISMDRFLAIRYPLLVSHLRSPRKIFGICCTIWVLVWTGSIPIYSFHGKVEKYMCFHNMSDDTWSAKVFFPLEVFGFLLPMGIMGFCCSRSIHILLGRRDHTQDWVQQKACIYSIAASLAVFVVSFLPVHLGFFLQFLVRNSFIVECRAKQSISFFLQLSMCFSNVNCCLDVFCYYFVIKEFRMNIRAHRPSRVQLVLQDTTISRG
# [4] = target: T3, Mucolipin-3 (Homo sapiens, UniProt Q8TDD5); assay: Fluorescence counterscreen assay for […] agonists: dose response cell-based high-throughput screening assay to identify agonists of the transient receptor potential channel ML3 (TRPML3). [Related pubchem assays: 1424, 1448 ]; type: functional
# T3 sequence (Q8TDD5 whole entry): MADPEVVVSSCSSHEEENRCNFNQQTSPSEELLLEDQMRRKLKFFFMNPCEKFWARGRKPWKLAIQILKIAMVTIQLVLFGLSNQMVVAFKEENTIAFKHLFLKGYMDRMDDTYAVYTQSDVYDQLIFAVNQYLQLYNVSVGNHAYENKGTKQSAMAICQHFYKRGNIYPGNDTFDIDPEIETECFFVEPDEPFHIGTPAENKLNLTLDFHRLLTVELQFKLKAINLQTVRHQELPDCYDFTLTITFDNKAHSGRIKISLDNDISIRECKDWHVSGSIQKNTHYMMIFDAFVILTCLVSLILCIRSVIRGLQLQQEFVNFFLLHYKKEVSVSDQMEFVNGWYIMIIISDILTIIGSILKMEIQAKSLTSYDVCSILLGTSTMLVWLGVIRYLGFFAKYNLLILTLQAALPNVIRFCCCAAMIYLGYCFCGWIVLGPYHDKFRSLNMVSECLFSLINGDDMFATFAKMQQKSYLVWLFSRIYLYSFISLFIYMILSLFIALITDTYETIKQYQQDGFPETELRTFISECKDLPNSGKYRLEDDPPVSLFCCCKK
# [5] = target: Ion channel NompC (Danio rerio, UniProt Q7T1G6); assay: Dose response cell-based high-throughput screening assay for agonists of the transient receptor potential channel N1 (TRPN1). [Related pubchem assays (depositor defined):AID1424, AID1448]; type: functional
# Sequence of Ion channel NompC (Q7T1G6 whole entry): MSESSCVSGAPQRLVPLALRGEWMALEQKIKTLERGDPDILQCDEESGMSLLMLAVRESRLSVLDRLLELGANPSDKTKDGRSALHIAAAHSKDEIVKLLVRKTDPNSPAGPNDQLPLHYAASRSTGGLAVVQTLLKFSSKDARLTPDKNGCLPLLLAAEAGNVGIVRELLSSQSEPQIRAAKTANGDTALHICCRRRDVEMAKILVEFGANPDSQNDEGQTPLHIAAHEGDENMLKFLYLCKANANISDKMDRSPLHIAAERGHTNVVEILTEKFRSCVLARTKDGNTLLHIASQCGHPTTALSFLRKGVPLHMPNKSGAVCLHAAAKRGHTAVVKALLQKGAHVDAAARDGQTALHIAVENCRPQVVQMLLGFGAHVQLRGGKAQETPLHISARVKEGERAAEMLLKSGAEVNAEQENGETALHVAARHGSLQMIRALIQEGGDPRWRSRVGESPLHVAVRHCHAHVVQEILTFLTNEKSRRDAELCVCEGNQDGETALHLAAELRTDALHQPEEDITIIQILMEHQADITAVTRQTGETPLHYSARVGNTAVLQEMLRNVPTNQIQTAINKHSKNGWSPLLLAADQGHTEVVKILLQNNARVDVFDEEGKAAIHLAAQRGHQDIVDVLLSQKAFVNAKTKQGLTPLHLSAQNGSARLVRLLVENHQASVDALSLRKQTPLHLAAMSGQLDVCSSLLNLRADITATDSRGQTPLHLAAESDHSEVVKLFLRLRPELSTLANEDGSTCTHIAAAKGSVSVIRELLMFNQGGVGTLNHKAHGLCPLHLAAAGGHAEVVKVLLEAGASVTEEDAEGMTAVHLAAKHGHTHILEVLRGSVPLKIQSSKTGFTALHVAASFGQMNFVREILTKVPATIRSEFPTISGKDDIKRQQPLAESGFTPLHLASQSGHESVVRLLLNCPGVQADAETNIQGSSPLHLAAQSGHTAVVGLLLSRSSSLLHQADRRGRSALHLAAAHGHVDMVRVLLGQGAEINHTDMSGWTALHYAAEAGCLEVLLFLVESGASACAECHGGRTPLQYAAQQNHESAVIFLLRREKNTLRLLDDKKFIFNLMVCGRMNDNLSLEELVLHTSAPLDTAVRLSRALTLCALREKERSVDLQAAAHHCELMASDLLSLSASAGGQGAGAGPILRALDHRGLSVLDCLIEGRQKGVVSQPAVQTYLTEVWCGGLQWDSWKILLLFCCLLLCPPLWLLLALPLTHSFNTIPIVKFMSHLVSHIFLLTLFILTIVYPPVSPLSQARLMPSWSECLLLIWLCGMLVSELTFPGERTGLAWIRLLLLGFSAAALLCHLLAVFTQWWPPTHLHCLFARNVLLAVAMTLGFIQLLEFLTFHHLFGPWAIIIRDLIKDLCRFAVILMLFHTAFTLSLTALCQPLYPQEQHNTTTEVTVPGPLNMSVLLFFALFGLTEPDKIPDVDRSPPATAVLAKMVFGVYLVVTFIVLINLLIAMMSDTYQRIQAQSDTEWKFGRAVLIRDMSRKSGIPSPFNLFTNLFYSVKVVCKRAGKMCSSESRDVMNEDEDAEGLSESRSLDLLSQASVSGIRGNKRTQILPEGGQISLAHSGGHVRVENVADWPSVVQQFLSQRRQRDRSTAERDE
# [6] = target: T4, Kappa-type opioid receptor (Homo sapiens, UniProt P41145); assay: SAR analysis of Antagonists of the Kappa Opioid Receptor (KOR) using an Image-Based Assay - Set 4. [Related pubchem assays (depositor defined):AID1777, AID1785]; type: functional
# T4 sequence (P41145 whole entry): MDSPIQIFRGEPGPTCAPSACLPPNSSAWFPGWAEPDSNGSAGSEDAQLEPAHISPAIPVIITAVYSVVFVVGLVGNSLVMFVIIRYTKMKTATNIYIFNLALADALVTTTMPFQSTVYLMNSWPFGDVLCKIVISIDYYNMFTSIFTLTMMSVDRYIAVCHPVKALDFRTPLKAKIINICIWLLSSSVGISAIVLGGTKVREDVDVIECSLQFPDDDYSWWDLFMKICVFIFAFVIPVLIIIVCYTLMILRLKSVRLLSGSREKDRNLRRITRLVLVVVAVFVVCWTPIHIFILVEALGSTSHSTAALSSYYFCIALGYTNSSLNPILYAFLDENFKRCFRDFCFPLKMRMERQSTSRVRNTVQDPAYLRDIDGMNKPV
# [7] = target: T4, Kappa-type opioid receptor; assay: SAR analysis of small molecule antagonists of the kappa opioid receptor via a luminescent beta-arrestin assay - Set 3. [Related pubchem assays (depositor defined):AID1777, AID1778, AID1785, AID1786, AID1966, AID2133, AID2136, AID2285, AID2495]; type: functional
# [8] = target: Delta-type opioid receptor (Homo sapiens, UniProt P41143); assay: SAR Analysis of Antagonists of the DOR Receptor using an Image-Based Assay - Set 3. [Related pubchem assays (depositor defined):AID1777, AID1785]; type: functional;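 note: U2OS cells expressing DOR1 and beta-arrestin GFP stimulated with 100 nM SNC80; imaging of GFP-tagged beta-arrestin moving into spots after receptor activation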
# [9] = target: Mu-type opioid receptor (Homo sapiens, UniProt P35372); assay: SAR Analysis of Antagonists of the MOR Receptor using an Image-Based Assay - Set 3. [Related pubchem assays (depositor defined):AID1777, AID1785, AID1786, AID1966, AID2133, AID2136, AID2284, AID2285, AID2420]; type: functional
# Sequence of Mu-type opioid receptor (P35372 whole entry): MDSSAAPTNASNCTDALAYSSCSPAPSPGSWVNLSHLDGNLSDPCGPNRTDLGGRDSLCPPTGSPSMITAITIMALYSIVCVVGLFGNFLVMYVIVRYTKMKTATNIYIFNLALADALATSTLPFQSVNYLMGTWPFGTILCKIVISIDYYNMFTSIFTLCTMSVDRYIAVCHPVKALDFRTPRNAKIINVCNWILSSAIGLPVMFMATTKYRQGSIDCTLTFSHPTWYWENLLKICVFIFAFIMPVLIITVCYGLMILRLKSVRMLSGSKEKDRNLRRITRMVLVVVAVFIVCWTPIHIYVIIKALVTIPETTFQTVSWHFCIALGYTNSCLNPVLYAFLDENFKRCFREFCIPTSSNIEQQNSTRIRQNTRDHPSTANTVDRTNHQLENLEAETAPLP
# [10] = target: T2, G-protein coupled receptor 55; assay: SAR Analysis of Selective Antagonists of GPR55 using an Image-Based Assay - Set 3. [Related pubchem assays (depositor defined):AID2058, AID2079]; type: functional
# [11] = target: G-protein coupled receptor 35 (Homo sapiens, UniProt Q9HC97); assay: SAR analysis of Antagonists of the GPR35 Receptor using an Image-Based Assay - Set 5. [Related pubchem assays (depositor defined):AID2058, AID2079]; type: functional
# Sequence of G-protein coupled receptor 35 (Q9HC97 whole entry): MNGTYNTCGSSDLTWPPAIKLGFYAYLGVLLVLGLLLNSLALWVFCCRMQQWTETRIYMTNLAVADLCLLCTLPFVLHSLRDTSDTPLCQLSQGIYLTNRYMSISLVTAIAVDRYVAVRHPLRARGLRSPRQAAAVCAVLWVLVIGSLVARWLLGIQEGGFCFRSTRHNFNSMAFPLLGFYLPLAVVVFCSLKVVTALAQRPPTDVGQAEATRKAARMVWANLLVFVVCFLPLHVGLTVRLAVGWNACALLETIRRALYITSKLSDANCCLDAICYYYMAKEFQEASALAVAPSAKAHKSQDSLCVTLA
# [12] = NIH/3T3 cell viability loss – mouse embryonic fibroblasts, dry powder, set 2, cytotoxicity control, dose response (AID 493247); type: functional, cell-based; details: Fibroblast
# [13] = system: Trypanosoma cruzi; assay: anti-trypanosomal activity in host cells – cell-based, plate reader, dry powder, set 3, dose response (AID 493197); type: functional
# [14] = target: T5, Dual specificity protein phosphatase 6 (Rattus norvegicus, UniProt Q64346); type: functional;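 note: confirmatory in vitro dose-response testing of MKP-3 inhibition; recombinant His-tagged MKP-3 made in E. coli BL21 with OMFP substrate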
# T5 sequence (Q64346 whole entry): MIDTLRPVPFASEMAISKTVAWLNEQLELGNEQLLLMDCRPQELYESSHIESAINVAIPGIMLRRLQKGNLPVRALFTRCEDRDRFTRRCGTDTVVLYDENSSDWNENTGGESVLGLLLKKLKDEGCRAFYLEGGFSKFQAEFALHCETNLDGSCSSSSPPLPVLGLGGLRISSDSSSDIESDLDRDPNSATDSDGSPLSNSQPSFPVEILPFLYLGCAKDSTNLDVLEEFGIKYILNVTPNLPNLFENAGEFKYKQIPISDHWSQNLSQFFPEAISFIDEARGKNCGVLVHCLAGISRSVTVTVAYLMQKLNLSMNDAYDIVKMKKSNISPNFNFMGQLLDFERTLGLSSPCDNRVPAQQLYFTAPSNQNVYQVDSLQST
# [15] = target: T6, Tyrosine-protein phosphatase non-receptor type 7 (Homo sapiens, UniProt P35236); assay: redox-active compounds inhibiting HePTP phosphatase – biochemical, fluorescence, mechanism study (AID 2068); type: functional
# T6 sequence (P35236 whole entry): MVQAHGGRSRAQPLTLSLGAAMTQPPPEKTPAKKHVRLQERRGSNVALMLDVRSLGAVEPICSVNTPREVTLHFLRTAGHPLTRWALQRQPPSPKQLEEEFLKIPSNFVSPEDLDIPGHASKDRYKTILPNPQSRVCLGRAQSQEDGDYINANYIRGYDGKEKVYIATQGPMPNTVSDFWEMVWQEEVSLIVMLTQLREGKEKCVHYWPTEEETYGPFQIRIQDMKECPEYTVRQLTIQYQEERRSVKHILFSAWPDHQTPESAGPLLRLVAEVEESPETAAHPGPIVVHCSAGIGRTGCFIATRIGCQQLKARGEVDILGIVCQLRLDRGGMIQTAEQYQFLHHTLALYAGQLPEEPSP
# [16] = target: T7, Dual specificity protein phosphatase 3 (Homo sapiens, UniProt P51452); assay: SAR VHR1 Fluorescent Assay for In Vitro dose response studies Set 2. [Related pubchem assays (depositor defined):AID1654, AID1661, AID1878]; type: functional
# T7 sequence (P51452 whole entry): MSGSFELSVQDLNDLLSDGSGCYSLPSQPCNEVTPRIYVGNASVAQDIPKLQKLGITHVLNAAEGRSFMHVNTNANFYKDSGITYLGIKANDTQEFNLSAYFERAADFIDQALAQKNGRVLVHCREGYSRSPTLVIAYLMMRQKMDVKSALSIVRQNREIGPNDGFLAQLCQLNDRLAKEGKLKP
# [17] = target: T7, Dual specificity protein phosphatase 3; assay: SAR VHR1 Fluorescent Assay for In Vitro dose response studies. [Related pubchem assays (depositor defined):AID1654, AID1661, AID1878, AID1992, AID2004, AID2070, AID2085]; type: functional
# [18] = target: T7, Dual specificity protein phosphatase 3; assay: SAR VHR1 absorbance Assay for In Vitro dose response studies. [Related pubchem assays (depositor defined):AID1654, AID1661, AID1878, AID1992, AID2004]
# [19] = target: Phospholipase A2 (Homo sapiens, UniProt P04054); type: functional;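 note: confirmatory dose-response counterscreen on phospholipase A2, testing hits that came from an ultra-high-throughput screen for ATG4B inhibitors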
# Sequence of Phospholipase A2 (P04054 whole entry): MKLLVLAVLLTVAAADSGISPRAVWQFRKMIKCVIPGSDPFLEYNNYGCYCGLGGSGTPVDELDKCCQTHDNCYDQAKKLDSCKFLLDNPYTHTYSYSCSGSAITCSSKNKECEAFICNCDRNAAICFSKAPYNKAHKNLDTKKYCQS
# [20] = target: Induced myeloid leukemia cell differentiation protein Mcl-1 (Homo sapiens, UniProt Q07820); type: functional
# [21] = system: INS1; assay: INS-1E survival protection against cytokine death – cell-based, luminescence, retest, dose response (AID 449756); type: functional; details: Rattus norvegicus;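 note: cell death triggered by IL-1 beta plus TNF-alpha plus IFN-gamma mixture; protective hits raise ATP signal compared with cytokine alone wells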
# [22] = Trypanosoma cruzi growth suppression in host cells – NIH3T3 host cells, beta-gal luminescence, confirmation (AID 2044); type: functional, cell-based;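 note: intracellular parasites grown in NIH/3T3 mouse fibroblasts as host cells; luminescent beta-galactosidase reporter signal from transgenic T. cruzi replicating inside host cells; inhibitors lower the luminescence signal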
# [23] = target: T8, Cysteine protease ATG4B (Homo sapiens, UniProt Q9Y4P1); type: functional;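 note: Fluorescence-based dose-response confirmation assay measuring inhibition of ATG4B activity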
# T8 sequence (Q9Y4P1 whole entry): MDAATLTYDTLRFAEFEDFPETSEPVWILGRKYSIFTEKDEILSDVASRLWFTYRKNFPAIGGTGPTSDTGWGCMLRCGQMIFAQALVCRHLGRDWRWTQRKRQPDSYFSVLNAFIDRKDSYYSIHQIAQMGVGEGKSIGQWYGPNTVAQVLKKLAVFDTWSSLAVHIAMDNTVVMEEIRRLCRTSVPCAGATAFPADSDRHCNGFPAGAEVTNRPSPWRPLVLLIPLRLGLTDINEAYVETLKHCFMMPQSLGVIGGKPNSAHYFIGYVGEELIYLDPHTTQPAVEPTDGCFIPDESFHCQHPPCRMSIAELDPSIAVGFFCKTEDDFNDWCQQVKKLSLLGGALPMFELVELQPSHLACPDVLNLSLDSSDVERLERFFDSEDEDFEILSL
# [24] = NIH3T3 cell viability loss – ATP luminescence, mouse fibroblasts, counter-screen, dose response (AID 2010); type: functional, cell-based;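 note: cells exposed to compound for about 90 hours before reading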
# [25] = Luminescence Cell-Based Dose Retest to Confirm Inhibitors of Cancer Stem Cells. [Related pubchem assays (depositor defined):AID2717, AID2721]; type: functional; details: Homo sapiens
# [26] = target: DNA damage-inducible transcript 3 protein (Mus musculus, UniProt P35639); type: functional, Cricetulus griseus
# Sequence of DNA damage-inducible transcript 3 protein (P35639 whole entry, the tested form may be a part): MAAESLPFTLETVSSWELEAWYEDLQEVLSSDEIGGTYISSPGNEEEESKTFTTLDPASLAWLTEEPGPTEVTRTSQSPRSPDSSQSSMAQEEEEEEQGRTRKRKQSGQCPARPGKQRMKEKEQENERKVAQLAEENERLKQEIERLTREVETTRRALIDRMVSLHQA
# [27] = target: Perilipin-1/ABHD5 (Homo sapiens, UniProt O60240+Q8WTS1); assay: Luminescence-based biochemical high throughput dose response assay for inhibitors of the interaction of the lipase co-activator protein, abhydrolase domain containing 5 (ABHD5) with perilipin-1 (PLIN1) (2K validation set). [Related pubchem assays (depositor defined):AID493027, AID493057]
# [28] = target: T9, Mannose-6-phosphate isomerase (Homo sapiens, UniProt P34949); assay: MPI inhibition at elevated mannose 6-phosphate – biochemical, fluorescence intensity, high mannose 6-phosphate, primary screen (AID 1220)
# T9 sequence (P34949 whole entry): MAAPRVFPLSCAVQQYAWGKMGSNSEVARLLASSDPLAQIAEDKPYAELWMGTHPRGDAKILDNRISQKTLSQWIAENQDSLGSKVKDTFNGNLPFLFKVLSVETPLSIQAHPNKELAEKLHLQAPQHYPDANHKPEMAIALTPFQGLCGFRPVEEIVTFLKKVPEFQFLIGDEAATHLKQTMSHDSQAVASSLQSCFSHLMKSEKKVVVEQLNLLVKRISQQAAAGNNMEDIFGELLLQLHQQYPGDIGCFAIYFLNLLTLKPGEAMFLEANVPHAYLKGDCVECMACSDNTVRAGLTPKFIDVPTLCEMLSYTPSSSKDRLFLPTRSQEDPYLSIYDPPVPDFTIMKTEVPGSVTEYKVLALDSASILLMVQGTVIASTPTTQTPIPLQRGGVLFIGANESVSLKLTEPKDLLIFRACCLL
# [29] = target: Cytochrome P450 2C9 (Homo sapiens, UniProt P11712)
# [30] = target: Cytochrome P450 2D6 (Homo sapiens, UniProt P10635);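 note: CYP2D6 member of a cytochrome P450 panel assay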
# Sequence of Cytochrome P450 2D6 (P10635 whole entry, the tested form may be a part): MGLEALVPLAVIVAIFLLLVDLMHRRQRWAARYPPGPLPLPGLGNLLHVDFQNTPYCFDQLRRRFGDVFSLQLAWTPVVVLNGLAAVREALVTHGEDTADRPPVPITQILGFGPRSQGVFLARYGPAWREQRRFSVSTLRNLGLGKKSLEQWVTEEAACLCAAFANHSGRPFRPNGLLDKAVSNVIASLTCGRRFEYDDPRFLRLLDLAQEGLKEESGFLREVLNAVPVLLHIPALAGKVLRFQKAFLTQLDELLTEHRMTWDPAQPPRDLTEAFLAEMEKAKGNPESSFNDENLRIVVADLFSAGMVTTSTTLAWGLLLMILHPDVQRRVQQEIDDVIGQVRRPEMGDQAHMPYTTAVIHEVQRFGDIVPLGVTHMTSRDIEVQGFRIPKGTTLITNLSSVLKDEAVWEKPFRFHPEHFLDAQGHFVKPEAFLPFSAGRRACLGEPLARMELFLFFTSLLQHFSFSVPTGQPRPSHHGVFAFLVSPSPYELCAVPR
# [31] = target: 1-acylglycerol-3-phosphate O-acyltransferase ABHD5/Perilipin-5 (Homo sapiens, UniProt Q00G26+Q8WTS1); assay: Luminescence-based biochemical high throughput dose response assay for inhibitors of the interaction of the lipase co-activator protein, abhydrolase domain containing 5 (ABHD5) with perilipin-5 (MLDP; PLIN5) (2K validation set). [Related pubchem assays (depositor defined):AID493035, AID493241]
# Sequence of 1-acylglycerol-3-phosphate O-acyltransferase ABHD5/Perilipin-5 (Q00G26 whole entry, the tested form may be a part): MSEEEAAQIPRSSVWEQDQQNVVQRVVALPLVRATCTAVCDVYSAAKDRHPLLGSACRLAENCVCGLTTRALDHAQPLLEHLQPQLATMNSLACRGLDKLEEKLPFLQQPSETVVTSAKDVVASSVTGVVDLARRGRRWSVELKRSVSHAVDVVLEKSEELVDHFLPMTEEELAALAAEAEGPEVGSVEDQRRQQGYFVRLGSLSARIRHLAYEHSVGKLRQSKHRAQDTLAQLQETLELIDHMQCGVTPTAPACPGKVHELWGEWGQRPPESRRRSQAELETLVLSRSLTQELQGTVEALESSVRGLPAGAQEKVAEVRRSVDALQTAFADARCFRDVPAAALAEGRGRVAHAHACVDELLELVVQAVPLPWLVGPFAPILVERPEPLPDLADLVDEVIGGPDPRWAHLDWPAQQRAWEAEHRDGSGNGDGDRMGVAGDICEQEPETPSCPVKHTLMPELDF
# Sequence of 1-acylglycerol-3-phosphate O-acyltransferase ABHD5/Perilipin-5 (Q8WTS1 whole entry, the tested form may be a part): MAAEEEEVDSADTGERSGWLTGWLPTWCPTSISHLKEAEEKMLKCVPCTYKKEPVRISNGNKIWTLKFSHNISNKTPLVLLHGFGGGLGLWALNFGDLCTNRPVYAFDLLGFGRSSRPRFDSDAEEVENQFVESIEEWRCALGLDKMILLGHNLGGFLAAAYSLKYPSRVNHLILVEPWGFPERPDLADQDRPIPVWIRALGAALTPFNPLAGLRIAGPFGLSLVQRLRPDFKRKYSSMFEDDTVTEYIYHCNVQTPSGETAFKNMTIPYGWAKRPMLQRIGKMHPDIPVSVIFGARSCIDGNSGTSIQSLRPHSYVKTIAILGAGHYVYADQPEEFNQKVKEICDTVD
compound,measurement,setting,value
O=S(=O)(Nc1cnc2ccccc2c1)c1ccc(F)cc1,IC50,[1],> 100 µM (not active)
same,IC50,[2],> 100 µM (inactive)
COc1ccc(-c2cc(C(F)(F)F)n3nc(C(=O)NCc4ccco4)cc3n2)cc1,EC50,[3],> 32 µM (inactive)
CCOC(=O)C1CN(S(=O)(=O)c2ccc(C)cc2)CCN1S(=O)(=O)c1ccc(C)cc1 (stereo unspecified),EC50,[4],> 29.9 µM (not active)
same,EC50,[5],> 29.9 µM (inactive)
CCN(CCNC(=O)c1ccc(CNS(=O)(=O)c2ccccc2)cc1)Cc1ccccc1,IC50,[6],12.1 µM (inactive)
same,IC50,[7],4.86 µM (active)
same,IC50,[8],> 32 µM (inactive)
same,IC50,[9],2.03 µM (active)
COC(=O)c1cnn(-c2ccccc2)c1/C=N/NC(N)=S,IC50,[10],> 32 µM (inactive)
same,IC50,[11],> 32 µM (inactive)
CCCNC(=O)C1(C)CCCN(Cc2ccc(Oc3ccccc3)cc2)C1 (stereo unspecified),AC50,[12],22.9 µM (active)
same,AC50,[13],8.72 µM (active)
CNS(=O)(=O)c1cccc(C(=O)NC2CCSc3ccccc32)c1 (stereo unspecified),IC50,[14],> 100 µM (inactive)
same,IC50,[15],> 100 µM (inactive)
same,IC50,[16],> 100 µM (inactive)
same,IC50,[17],> 100 µM (inactive)
same,IC50,[18],> 100 µM (inactive)
Cc1ccccc1/C=N/Nc1ccnc2cc(Cl)ccc12,IC50,[19],11.4 µM (active)
same,IC50,[20],5.13 µM (active)
same,AC50,[21],5.39 µM (active)
same,EC50,[22],1.07 µM (active)
same,IC50,[23],14.7 µM (active)
same,EC50,[24],> 60 µM (not active)
same,AC50,[25],3.62 µM (active)
same,Absolute IC50 (CHOP),[26],10 µM
Nc1cc(-c2ccncc2)c[nH]c1=O [INAMRINONE],IC50,[27],> 79.5 µM (inactive)
same,IC50,[28],> 50 µM (not active)
same,AC50,[29],12.6 µM (inconclusive)
same,AC50,[30],12.6 µM (inconclusive)
same,IC50,[31],78.8 µM (inactive)
